According to patent US20220227849A1, “INHIBITOR OF SURFACE PROTEIN (SP-D) / SIRPA / SHP2 PATHWAY FOR USE IN THE PREVENTION AND/OR TREATMENT OF SECONDARY INFECTION” (UNIVERSITÉ DE NANTES, priority 2019, published 2022):

Tested on: alveolar macrophages
Assay: In vivo phagocytic assay of alveolar macrophages 7 days after aseptic lung inflammatory response (intratracheal instillation)
Settings: wild type mice inoculated intratracheally 7 days prior; TNF-α 2.5 μg, HMGB1 10 μg; 2 hours after YFP-E. coli; FIG. 3f
Method: CpG 1668 (10 nM), TNF-α (2.5 μg, Myltenyi Biotec, Paris, France) and HMGB1 (10 μg, Elabscience, Tex., USA) were administrated intra-tracheally under anaesthesia. Mice were kept in a semi-recumbent position for 60 seconds after injection.
Recipient mice were γ-irradiated twice with […] and were reconstituted with 2.5-5×10^6 T cell-depleted bone marrow cells of each relevant donor strain at the indicated ratio. Neomycin (50 mg/ml) was added to the drinking water for the next 4 weeks. Chimeras were used for subsequent experiments 6 to 10 weeks after the reconstitution. Percentage of chimerism was tested during the experiments.
YFP-S. aureus (Strain RN4220 with YFP/erm2 plasmid, kindly gifted by Malone, C. L. et al. 2009 [29]), and YFP-E. coli (strain DH5alpha with p-HG-1 plasmid, kindly gifted by Janssen, W. J. et al 2011 [30]) were grown overnight in Luria broth media with erythromycin 10 μg/mL or 20 μg/mL chloramphenicol, respectively. Fluoresbrite YG carboxylate microspheres (3.64 10^9 beads, […]; Polysciences), YFP-E. coli (OD600=2-3, 75 μL) or YFP-S. aureus (OD600=5-6, 75 μL) were injected i.t. in mice. 2 hours later, the percentages of FITC or YFP^+ macrophages in the lungs were measured by flow cytometry. In vitro phagocytic assay for splenic macrophages

Molecule	phagocytic function of AM after YFP-E. coli pneumonia
TNF-α	displayed impaired phagocytic function
HMGB1: danger-associated molecular pattern protein (Elabscience) administered intra-tracheally (protein, UniProt P63158 1-215, looked up) High mobility group protein B1: MGKGDPKKPRGKMSSYAFFVQTCREEHKKKHPDASVNFSEFSKKCSERWKTMSAKEKGKFEDMAKADKARYEREMKTYIPPKGETKKKFKDPNAPKRPPSAFFLFCSEYRPKIKGEHPGLSIGDVAKKLGEMWNNTAADDKQPYEKKAAKLKEKYEKDIAAYRAKGKPDAAKKGVVKAEKSKKKKEEEDDEEDEEDEEEEEEEEDEDEEEDDDDE	but not those of HMGB1 treated mice, displayed impaired phagocytic function
